Measurements from PubChem BioAssay (NCI).
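Cells were grown in 96-well plates and exposed to each compound for 48 hours at five concentrations; endpoints were interpolated linearly between bracketing concentrations, or set to the highest concentration if not reached. TGI is the concentration that stops growth completely.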

Tests used:
Assay in all cases: DTP human tumour cell line panel, 48 h
ACHN renal = system: ACHN renal
CCRF-CEM leukemia = system: CCRF-CEM leukemia
HOP-62 NSCLC = system: HOP-62 NSCLC
LOX IMVI melanoma = system: LOX IMVI melanoma
MCF7 breast = system: MCF7 breast
NCI/ADR-RES ovarian = system: NCI/ADR-RES ovarian
EKVX NSCLC = system: EKVX NSCLC
HCT-116 colon = system: HCT-116 colon
HS 578T breast = system: HS 578T breast
CAKI-1 renal = system: CAKI-1 renal

SMILES	TGI (ACHN renal)	TGI (CCRF-CEM leukemia)	TGI (HOP-62 NSCLC)	TGI (LOX IMVI melanoma)	TGI (MCF7 breast)	TGI (NCI/ADR-RES ovarian)	TGI (EKVX NSCLC)	TGI (HCT-116 colon)	TGI (HS 578T breast)	TGI (CAKI-1 renal)
CC(C)(C)c1cc(OCc2nn3c(Cc4ccccc4)nnc3s2)c(Cl)cc1OCc1nn2c(Cc3ccccc3)nnc2s1	> 100 µM	> 100 µM	> 100 µM	> 100 µM	> 100 µM	> 100 µM	> 100 µM	> 100 µM	> 100 µM	> 100 µM
CSc1ccn(C2CC(F)C(CO)O2)c(=O)n1 (stereo not given)	> 100 µM	> 100 µM	> 100 µM	> 100 µM	> 100 µM	> 100 µM	> 100 µM	> 100 µM	> 100 µM	> 100 µM
O=C1C(Cl)=C(N(C(=O)c2ccccc2)C(=O)c2ccccc2)C(=O)c2ccccc21	13.9 µM	18.6 µM	> 100 µM	> 100 µM	24 µM	> 100 µM	> 100 µM	17.6 µM	98 µM	23.3 µM
Cc1nc(C)c(N2CCNCC2)c(=O)[nH]1	> 100 µM	> 100 µM	> 100 µM	> 100 µM	> 100 µM	> 100 µM	> 100 µM	> 100 µM	> 100 µM	> 100 µM
O=C(NC(=O)c1cc(-c2ccccc2)n[nH]1)c1ccccc1	> 100 µM	> 100 µM	> 100 µM	> 100 µM	> 100 µM	> 100 µM	> 100 µM	> 100 µM	> 100 µM	> 100 µM
CC(=O)Oc1c(-c2ccccc2)sc2ccccc12	32 µM	37 µM	45.7 µM	26.4 µM	56.4 µM	59.1 µM	53 µM	26.1 µM	40.6 µM	22.8 µM
Cc1cc(S(=O)(=O)Nc2nnc3cnc4ccccc4n23)c(S)cc1Cl	> 100 µM	> 100 µM	> 100 µM	> 100 µM	> 100 µM	> 100 µM	> 100 µM	> 100 µM	> 100 µM	> 100 µM
Cc1sc2c(c1C)/C(=N\O)c1cccn1-2	> 100 µM	> 100 µM	63.3 µM	> 100 µM	> 100 µM	> 100 µM	> 100 µM	> 100 µM	46 µM	> 100 µM
COC1=CC(=O)CC(C)C12Oc1c(Cl)c(OC)cc(OC)c1C2=O (stereo not given)	> 100 µM	98.3 µM	> 100 µM	> 100 µM	> 100 µM	> 76.4 µM	> 100 µM	> 93.7 µM	> 80 µM	84.9 µM
COc1cc2c(c(O)c1OC)CC1CCC(=O)N1C2c1cccc2ccccc12 (stereo not given)	> 100 µM	> 100 µM	41.8 µM	52.4 µM	> 100 µM	53.7 µM	54.5 µM	45.3 µM	69.3 µM	47.1 µM
COC1=CC2(CC(OC)=C1OC)OC21COc2ccccc2C1=O (stereo not given)	> 100 µM	> 100 µM	> 100 µM	> 100 µM	> 100 µM	> 100 µM	> 100 µM	> 100 µM	> 100 µM	> 100 µM
